Results: paper PMC11984268 (BMC Cancer, 2025)
Like-named read-outs stand apart in the source and are kept apart here.

Key:
[1] = Plasma pharmacokinetics by HPLC-MS/MS; type: in vivo, human; conditions: for concentration at 24 h: read-out: Cmin 24h
Method: Plasma samples were collected pre-dose and 1, 2, 4, 6, 8, 10 and 24 h after the dose on C1/D21. PK trough samples (pre-dose; 2 h post-dose) were obtained on day 21 of cycles 2, 4, 6, 8, 10 and 12.

pMEK1/2 = pMEK1/2 in paired skin biopsies, Western blotting/densitometry; type: in vivo, human; conditions: dose escalation, cohort 7, 12 and 13, C1D15
Method: (§1) All patients in the dose escalation phase consented to a fresh frozen punch skin biopsy during screening and on C1/D15 (± 7 days). Fresh frozen skin and tumour biopsies during screening and on C1/D15 (± 7 days) were also required for the first 13 patients in the dose expansion phase. PD markers of MEK1/2 inhibition (pMEK1/2; pERK1/2) in skin biopsies and MET inhibition (pSTAT3) in tumour biopsy were assessed by Western blotting (WB), as previously described. Densitometry on WB images was performed using ImageJ software.

[2] = in vivo; cited from earlier work
[3] = remark: listed apart in the source
Method: A rolling-six design was employed.
Safety assessments, ophthalmic/cardiac examinations were performed as previously described. […] Anti-tumour activity was conducted at baseline (within 28 days prior to C1/day 1 (D1)) and then every 2 cycles and evaluated by RECIST v1.1.
Safety and efficacy data were summarised using descriptive statistics. Evaluable patients for toxicity were those patients that received at least one dose of one or both drugs. Evaluable patients for MTD or dose escalation were those patients who completed C1 or withdrew early for experiencing a DLT. Response analyses (RECIST v1.1) were performed on an intention-to-treat basis, and any patient who received any dose of study treatment was evaluable for response. PFS was defined as the time between receiving the first dose of study medication to disease progression or death from any cause. OS was defined as the time between C1D1 to death from any cause. PFS and OS were estimated using the Kaplan–Meier method. Statistical significance was calculated from distinct technical replicates by Student’s t-test (2-tailed, 2 sample equal variance on unpaired data), in GraphPad Prism 8. Graphs were plotted as means with error bars represented as SD; statistical significance was denoted as follows: *** = p < 0.001, ** = p < 0.01, * = p < 0.05, ns = p > 0.05.

pMET^Y1003 = assay: pMET Y1003 in paired tumour biopsies, Western blotting; type: in vivo, human; conditions: one patient with paired biopsy, dose expansion, C1D15
pSTAT3^Y705 = assay: pSTAT3 Y705 in paired tumour biopsies, Western blotting; type: in vivo, human; conditions: one patient with paired biopsy, dose expansion, C1D15
Method: as §1

cMET = conditions: cited from earlier work
[4] = patients with advanced solid cancers; cited from earlier work
[5] = Cycle 1, Day 21, Cohort 7: binimetinib 30mg B.D 28d, crizotinib 200mg B.D, n = 7
[6] = Cycle 1, Day 21, Cohort 12: binimetinib 30mg B.D 21d, crizotinib 200mg B.D, n = 5
[7] = Cycle 1, Day 21, Cohort 13: binimetinib 30mg B.D 21d, crizotinib 250mg O.D, n = 6
[8] = Cycle 1, Day 21, Dose expansion phase: binimetinib 30mg B.D 21d, crizotinib 250mg O.D, n = 26
[9] = human, plasma, dose escalation phase, 3 cohorts, oral, read-out: time of peak plasma concentrations after dosing

Compound | AUC0-10h [1, 5] | Cmax [1, 5] | Cmin [1, 5] | Tmax [1, 5] | AUC0-10h [1, 6] | Cmax [1, 6] | Cmin [1, 6] | Tmax [1, 6] | AUC0-10h [1, 7] | Cmax [1, 7] | Cmin [1, 7] | Tmax [1, 7] | AUC0-10h [1, 8] | Cmax [1, 8] | Cmin [1, 8] | Tmax [1, 8] | Tmax [1, 9] [h] | other results
Cn1cnc2c(F)c(Nc3ccc(Br)cc3F)c(C(=O)NOCCO)cc21 [binimetinib] | 1604 (554) ng*h/ml (SD) | 265 (83.4) ng/ml (SD) | 77.1 (40.3) ng/ml (SD) | 2.26 (2.14) h (SD) | 1780 (706) ng*h/ml (SD) | 386 (189) ng/ml (SD) | 85.8 (51.9) ng/ml (SD) | 1.75 (0.5) h (SD) | 1402 (666) ng*h/ml (SD) | 320 (136) ng/ml (SD) | 64.0 (28.9) ng/ml (SD) | 1.51 (0.54) h (SD) | 2129 (1152) ng*h/ml (SD) | 357 (171) ng/ml (SD) | 103 (58.5) ng/ml (SD) | 2.55 (1.5) h (SD) | 0.98 to 6 | pMEK1/2 (catalytically-inactive) in skin biopsies, post- vs pre-treatment (pMEK1/2): significant accumulation; MTD (binimetinib dose in the combination) (days 1–21 every 28 days, with crizotinib 250 mg O.D continuously): 30 mg B.D; RP2D [2]: 45 mg B.D; doses achieving plasma concentrations required to inhibit pERK1/2 [2]: ≥ 30 mg B.D
C[C@@H](Oc1cc(-c2cnn(C3CCNCC3)c2)cnc1N)c1c(Cl)ccc(F)c1Cl [crizotinib] | 2481 (980) ng*h/ml (SD) | – | 205 (78.0) ng/ml (SD) | – | 2119 (1341) ng*h/ml (SD) | – | 181 (136) ng/ml (SD) | – | 1467 (410) ng*h/ml (SD) | – | 114 (43.1) ng/ml (SD) | – | 1647 (907) ng*h/ml (SD) | – | 149 (85.3) ng/ml (SD) | – | 0.97 to 6 | DR-AE determined to be related to the drug ([3]; dose escalation phase, of 210 DR-AE): 164; DR-AE determined to be related to the drug ([3]; dose expansion phase, of 297 DR-AE): 244; AUC0-24h [1, 7]: 2529 (380) ng*h/ml (SD); AUC0-24h [1, 8]: 3479 (2083) ng*h/ml (SD); median trough plasma concentrations ([1]; cohort 13, crizotinib 250 mg O.D): > 62 ng/mL; concentration at 24 h ([1]; human, plasma, oral, Cycle 1, Day 21, Cohort 13: binimetinib 30mg B.D 21d, crizotinib 250mg O.D, n = 6): 72.6 ng/mL; concentration at 24 h ([1]; human, plasma, oral, Cycle 1, Day 21, Dose expansion phase: binimetinib 30mg B.D 21d, crizotinib 250mg O.D, n = 26): 109 ng/mL; pMET Y1003 levels in tumour during treatment (pMET^Y1003): increased; pSTAT3 Y705 levels in tumour during treatment (pSTAT3^Y705): decreases; MTD (crizotinib dose in the combination) (continuously, with binimetinib 30 mg B.D days 1–21 every 28 days): 250 mg O.D; pre-clinically predicted effective concentration to inhibit cMET (cMET): 62 ng/mL; maximum-tolerated dose (MTD) of crizotinib with PD- 0325901 [4]: 200 mg B.D
O=C(NOCCO)c1cc2[nH]cnc2c(F)c1Nc1ccc(Br)cc1F [AR0042603] | 203 (112) ng*h/ml (SD) | 25.1 (15.1) ng/ml (SD) | 10.4 (2.66) ng/ml (SD) | 3.03 (1.97) h (SD) | 183 (24.8) ng*h/ml (SD) | 29.5 (8.62) ng/ml (SD) | 10.2 (2.47) ng/ml (SD) | 1.75 (0.5) h (SD) | 121 (28.9) ng*h/ml (SD) | 23.4 (8.04) ng/ml (SD) | 6.95 (1.6) ng/ml (SD) | 1.84 (1.16) h (SD) | 194 (85.2) ng*h/ml (SD) | 22.7 (16.0) ng/ml (SD) | 12.1 (4.8) ng/ml (SD) | 3.15 (1.99) h (SD) | – | –
